Test results taken from patent US6692754B1, “Cosmetic composition” (Kyowa Hakko Kogyo Co., Ltd., priority 1999, dated 2004).

Assays:
[1] = tested on: Fibroblast derived from human neonate; test: Collagen synthesis promotion activity in human fibroblast (3H-glycine incorporation, collagenase digestion); format: cell-based; settings: for Collagen Synthetic Promotion Activity: 72 hours, relative to control (0 mM = 100); for Collagen synthetic promotion activity (in words): human fibroblast
Protocol: Assay of synthetic collagen was conducted by the following method according to “Experimental Method of Collagen” (Written by Nagai, et al., Kodansha Scientific).
Fibroblast derived from human neonate (Sanko Junyaku Co., Ltd.) was cultivated in DMEM medium [Virology, 8, 396 (1959)] containing 10% fetal bovine serum under conditions of 5% CO2 at 37° C. by the stationary phase. ^3H marked glycine and a test compound was added thereto, and further cultivated for 72 hours. DMEM medium was prepared by mixing Dulbecco's Modified Eagle's Medium “Nissui” (2) (manufactured by Nissui Pharmaceutical) with 4 mmol/L glutamine, an optimum dose of sodium hydrogencarbonate, 10 mmol/L HEPES, 50 U/ml penicillin G potassium, 50 μg/ml streptomycin and 10% fetal bovine serum.
To the resultant culture broth was added 500 μmol/L phenylmethanesulfonyl fluoride (PMSF), and the cells and medium were recovered, crashed with a sonicater and the protein was extracted.
To the extract were added 100 μmol/L bovine serum albumin (BSA) and 10% trichloroacetic acid (TCA), and the resultant mixture was centrifuged at 3000 rpm for 5 minutes to recover the precipitate.
To the precipitate was added 0.2 mol/L sodium hydroxide at a density of 8 μl per 1 cm^2 of the bottom area of culture vessel used for said cultivation, and the resultant mixture was neutralized with an equivalent amount of 1 mol/L phosphate buffer.
To 100 μl of the resultant protein solution were added 25 mmol/L calcium chloride (10 μmol/L), 62.5 mmol/L N-ethylmaleimide (20 μmol/L) and 20 units of collagenase (manufactured by Wako Pure Chemical Industries, Ltd.; for analyzing the collagen), and the resultant mixture was allowed to react at 37° C. for 90 minutes.
The reaction mixture was filtered with an ultrafilter (molecular weight: 10,000), and the protein fraction of the filtrate was subjected to radiation activity (CDP) assay, which was assigned as freshly prepared collagen. The radiation activity (NCDP) of the non-filtered protein fraction was assayed, and collagen synthetic ratio was calculated according to the following formula 1.
Relative collagen synthetic promotion activity (change in the collagen synthesis) was calculated according to the following formula 2, comparing with the relative value of the collagen synthetic ratio of the test compounds against control. [formula] [formula]

[2] = tested on: skin of cubital fossa of healthy female panelists; test: Evaluation of moisture retention function (1): continuous application, skin conductivity (SKICON-200); format: in vivo, human
Protocol: Change in the moisture retention function by continuous use was examined for the evaluation of the skin quality-improving effect of Compositions (1)-(8) prepared in Examples 1-8. The compositions are applied to the test part/cubital fossa of 4 healthy female panelists in 23-28 years old in an amount of 2 μl/cm^2 twice a day in the morning and evening for 3 weeks or 2 months. Moisture content in the test part before the application of the cosmetic composition was measured in the morning with the elapse of time. The probe was contacted vertically on the test part, and the skin conductivity (=moisture content) was assayed with SKICON-200 (manufactured by IBS) as a measuring machine. When the measured value is high, it means that the moisture content is high. Change in the skin conductivity (relative conductivity) on the test part was calculated according to the following formula 3, as a relative value to the change in the conductivity on the non-treated part. [formula]

[3] = tested on: epidermal keratinized cells derived from human neonate; test: Human epidermal cell proliferation activity (MTT method); format: cell-based; settings: for Epidermal Cell Proliferation Activity: 4 days, 0 mM = 100
Protocol: The human epidermal cell proliferation activity was assayed according to MTT method [Cell Culture III, 4477-4482 (1984)] by incorporating 3-(4,5-dimethylthiazol-2-yl)-2,5-diphenyltetrazolium bromide (MTT) into cells and measuring the resultant MTT formazan by colorimetry at the wave length of 570 nm (Reference, 650 nm).
That is, epidermal keratinized cells derived from human neonate (Sanko Junyaku Co., Ltd.) was cultivated in KGM medium (Sanko Junyaku Co., Ltd.) in an atmosphere of 5% CO2 at 37° C. by the stationary phase, mixed with Hyp and N-Acetyl-Hyp and cultivated for 4 days. Then, the culture broth was mixed with 1/10 volume of 5 mg/ml MTT reagent in a phosphate buffer (pH 7.4, free of calcium and magnesium), and cultivated in an atmosphere of 5% CO2 at 37° C. for 4 hours. After removing the medium, MTT formazan in the cell was extracted with isopropanol containing 0.4 mol/L hydrochloric acid, and the absorbance at 570 nm was measured in comparison with that of 630 nm.

[4] = tested on: mouse epidermal cells; test: Mouse epidermal cell proliferation activity (MTT); format: cell-based, C3H mouse; settings: for Epidermal Cell Proliferation Activity: 6 days, 0 μM = 100
Protocol: Epidermis was peeled from 3 days old C3H mouse according to Method of Tanigaki, et al., [The Japanese Journal of Dermatology, 1145-1152 (1989)].
The epidermis was treated with 0.25% trypsin and centrifuged at 1500 rpm for 5 minutes to obtain the cells. The cells were inoculated onto DMEM medium containing 10% fetal bovine serum and cultivated at 37° C. for 1 day to give the mouse epidermal cells.
The mouse epidermal cells were cultivated on MCDB 153 medium free of serum containing the test compound (Hyp or N-Acetyl-Hyp) for 6 days, mixed with 1/10 volume of 5 mg/ml MTT reagent in phosphate buffer (pH 7.4, free of calcium and magnesium), and then cultivated in an atmosphere of 5% CO2 at 37° C. for 4 hours. After removing the medium, MTT formazan in the cell was extracted with isopropanol containing 0.4 mol/L hydrochloric acid, and the absorbance at 570 nm was measured in comparison with that of 630 nm.

[5] = tested on: skin of cubital fossa of healthy female panelists; test: Evaluation of moisture retention function (2): single application, skin conductivity; format: in vivo, human
Protocol: Concentration dependency on moisture retention effect of N-Acetyl-Hyp was evaluated by the single application. The moisture retention was assayed on the test part/cubital fossa of 12 healthy female panelists in 23-32 years old, and each of the test compositions was applied thereto in an amount of 2 μl/cm^2 and allowed to leave. Three hours later, the moisture content of the test part was measured, and the moisture retention effect was evaluated in terms of the relative conductivity when the moisture content before the application was defined as 100%.

Structure (SMILES) | Collagen Synthetic Promotion Activity ([1]; 0.1 mM test compound) | Collagen Synthetic Promotion Activity ([1]; 1 mM test compound) | Collagen synthetic promotion activity (in words) [1] | Skin moisture content / moisture retention function on continuous application (in words) [2] | Concentration dependence of proliferation activity [3] | Epidermal cells proliferation activity (in words) [3] | Epidermal Cell Proliferation Activity ([3]; 10 mM) | Epidermal Cell Proliferation Activity ([3]; 100 mM) | Epidermal proliferation activity (in words) [4] | Epidermal Cell Proliferation Activity ([4]; 1 μM) | Epidermal Cell Proliferation Activity ([4]; 3 μM) | Epidermal Cell Proliferation Activity ([4]; 10 μM) | Relative Conductivity ([5]; 1% N-Acetyl-Hyp, single application 2 μl/cm2, three hours later, before application = 100%) | Relative Conductivity ([5]; 3% N-Acetyl-Hyp, single application, three hours later) | Relative Conductivity ([5]; 5% N-Acetyl-Hyp, single application, three hours later) | Relative Conductivity ([5]; 10% N-Acetyl-Hyp, single application, three hours later) | Moisture retention effect by single treatment (in words) ([5]; single treatment) | Moisture retention improving effect compared with collagen [2]
O=C(O)[C@@H]1C[C@@H](O)CN1 [Hyp, trans-4-hydroxy-L-proline] | 108.3 | 117.1 | observed | an improvement in the moisture retention function was observed | Proliferation activity depending on the concentration was found | observed | 111.6 | 135.1 | found | 88.6 | 107.5 | 126 |  |  |  |  |  | 
CC(=O)N1C[C@H](O)C[C@H]1C(=O)O [N-Acetyl-Hyp, N-acetyl-trans-4-hydroxy-L-proline] | 121.1 | 119.7 | observed | an improvement in the moisture retention function was observed |  | observed | 108.7 | 85.9 | found | 110.7 | 118.2 | 121.9 | 100% | 129% | 186% | 189% | concentration dependent-moisture retention effect | an improving effect exceeding that of collagen was observed
